According to the supplement of paper PMC10331698:
± gives the standard deviation of the averaged measurements.

Experiments:
Assay in all cases: level (log10 ratio to DMSO vehicle control); higher = higher biomarker level / cell amount than vehicle control
[1] = compound: OCCC(F)(F)C(F)(F)C(F)(F)C(F)(F)C(F)(F)C(F)(F)C(F)(F)C(F)(F)F [8:2 Fluorotelomer alcohol]; settings: 6700 nM; in DMSO
Description: (§1)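 BioMAP Diversity Plus panel of 12 human primary cell co-culture systems (3C, 4H, LPS, SAg, BT, BF4T, BE3C, CASM3C, HDF3CGF, KF3CT, MyoF, Mphg). Compounds were added 1 h before stimulation and left for 24 h (MyoF 48 h; BT 72 h for soluble read-outs or 6 d for IgG). Biomarkers were read by ELISA, cytotoxicity by SRB, PBMC viability and proliferation by Alamar Blue. Each well value was divided by the mean of 8 DMSO control wells on the same plate and log10 transformed; duplicate blinded samples were tested at 4 concentrations.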

[2] = compound: C=CC(=O)OCC(F)(F)C(F)(F)C(F)(F)C(F)(F)C(F)(F)C(F)(F)C(F)(F)C(F)F [1H,1H,9H-Perfluorononyl acrylate]; settings: in DMSO
Description: as §1

[3] = compound: OCC(F)(F)C(F)(F)C(F)(F)C(F)(F)C(F)(F)C(F)(F)C(F)(F)C(F)(F)CO [1H,1H,10H,10H-Perfluorodecane-1,10-diol]; settings: in DMSO
Description: as §1

[4] = compound: FC(F)(F)C(F)(F)C(F)(F)C(F)(F)CCI [1H,1H,2H,2H-Perfluorohexyl iodide]; settings: in DMSO
Description: as §1

[5] = compound: O=C(CC(=O)C(F)(F)C(F)(F)C(F)(F)F)c1cccs1 [(Perfluorobutyryl)-2-thenoylmethane]; settings: in DMSO
Description: as §1

[6] = compound: Cc1ccc(S(=O)(=O)OCC(F)(F)C(F)(F)C(F)(F)C(F)(F)C(F)(F)C(F)F)cc1 [1H,1H,7H-Perfluoroheptyl 4-methylbenzenesulfonate]; settings: in DMSO
Description: as §1

[7] = compound: O=P(O)(O)CCC(F)(F)C(F)(F)C(F)(F)C(F)(F)C(F)(F)C(F)(F)F [2-(Perfluorohexyl)ethylphosphonic acid]; settings: in DMSO
Description: as §1

Test System | level (log10) [1] | level (log10) ([2]; 6700 nM) | level (log10) ([2]; 20000 nM) | level (log10) ([2]; 60000 nM) | level (log10) ([3]; 6700 nM) | level (log10) ([3]; 20000 nM) | level (log10) ([3]; 60000 nM) | level (log10) ([4]; 6700 nM) | level (log10) ([4]; 20000 nM) | level (log10) ([4]; 60000 nM) | level (log10) ([5]; 6700 nM) | level (log10) ([5]; 20000 nM) | level (log10) ([6]; 6700 nM) | level (log10) ([6]; 20000 nM) | level (log10) ([6]; 60000 nM) | level (log10) ([7]; 6700 nM) | level (log10) ([7]; 20000 nM) | level (log10) ([7]; 60000 nM)
lMphg:CD62E/E-Selectin | 0.024 ± 0.023 | 0 ± 0.0099 | -0.004 ± 0.02 | -0.01 ± 0.017 | -0.0175 ± 0.005 | -0.102 ± 0.11 | -0.8 | -0.021 ± 0.0071 | -0.0105 ± 0.026 | 0.0315 ± 0.0064 | -0.0485 ± 0.054 | -0.123 ± 0.034 | -0.0225 ± 0.0064 | 0.022 ± 0.0014 | 0.0635 ± 0.019 | -0.015 ± 0.013 | -0.017 ± 0.0042 | 0.075 ± 0.0085
lMphg:CD69 | -0.086 ± 0.035 | -0.048 ± 0.0028 | -0.0265 ± 0.025 | -0.0255 ± 0.03 | -0.003 ± 0.0099 | -0.019 ± 0.033 | -0.348 | -0.019 | -0.013 ± 0.013 | 0.043 ± 0.021 | -0.169 ± 0.049 | -0.23 ± 0.013 | -0.007 ± 0.016 | -0.048 ± 0.027 | -0.039 ± 0.062 | -0.045 ± 0.042 | -0.0285 ± 0.023 | 0.0175 ± 0.053
lMphg:CD106/VCAM-1 | 0.0055 ± 0.012 | -0.03 | -0.029 ± 0.0099 | -0.0405 ± 0.0092 | -0.008 ± 0.0014 | -0.0075 ± 0.029 | -0.802 | 0.0015 ± 0.018 | -0.0005 ± 0.016 | 0.009 ± 0.013 | -0.006 ± 0.0057 | -0.0715 ± 0.036 | -0.0105 ± 0.029 | 0.0045 ± 0.0021 | 0 ± 0.0071 | -0.001 ± 0.0028 | 0.006 ± 0.016 | -0.002 ± 0.038
lMphg:CXCL8/IL-8 | 0.076 ± 0.024 | 0.014 ± 0.02 | 0.0025 ± 0.0064 | 0.038 ± 0.014 | 0.03 ± 0.035 | 0.0055 ± 0.018 | -0.19 | -0.0325 ± 0.0035 | -0.006 ± 0.0085 | 0.0355 ± 0.018 | -0.022 ± 0.027 | 0.048 ± 0.011 | 0.022 ± 0.0057 | 0 | 0.022 ± 0.057 | -0.008 ± 0.0028 | -0.0315 ± 0.033 | 0.0385 ± 0.026
lMphg:IL-1alpha | -0.0045 ± 0.025 | 0.006 ± 0.038 | -0.0025 ± 0.054 | 0.0195 ± 0.063 | 0.002 ± 0.028 | 0.0055 ± 0.046 | -0.167 | 0.008 | 0.0045 ± 0.012 | 0.0345 ± 0.0078 | 0.0035 ± 0.0035 | 0.0395 ± 0.04 | -0.034 ± 0.017 | -0.036 ± 0.042 | 0.033 ± 0.099 | -0.0265 ± 0.021 | -0.029 ± 0.024 | 0.0075 ± 0.084
lMphg:M-CSF | -0.0345 ± 0.021 | 0.0155 ± 0.04 | -0.0225 ± 0.018 | -0.042 ± 0.025 | -0.0155 ± 0.005 | -0.031 | -0.097 | -0.018 ± 0.017 | -0.0275 ± 0.018 | 0.0185 ± 0.0035 | -0.0285 ± 0.0021 | -0.072 ± 0.0085 | -0.0295 ± 0.005 | -0.0305 ± 0.0035 | -0.016 | -0.0175 ± 0.016 | -0.0335 ± 0.015 | -0.0075 ± 0.016
lMphg:SRB | -0.02 | -0.003 ± 0.0014 | -0.005 ± 0.0042 | -0.005 ± 0.0057 | -0.0025 ± 0.013 | -0.014 ± 0.0057 | -1.09 | -0.008 ± 0.011 | -0.003 ± 0.0028 | 0 ± 0.021 | -0.0175 ± 0.0064 | -0.106 ± 0.029 | 0.004 ± 0.013 | -0.002 ± 0.0042 | -0.0055 ± 0.00071 | -0.006 ± 0.0071 | -0.0025 ± 0.013 | 0.009 ± 0.017
lMphg:SRB-Mphg | -0.015 ± 0.03 | -0.1115 ± 0.00071 | -0.082 ± 0.11 | 0.0085 ± 0.097 | 0.003 ± 0.028 | -0.0625 ± 0.084 | -0.775 | -0.0005 ± 0.03 | -0.004 ± 0.031 | 0.0005 ± 0.025 | 0.005 ± 0.011 | -0.054 ± 0.0028 | 0.033 ± 0.0028 | -0.013 ± 0.03 | 0.0155 ± 0.036 | -0.029 ± 0.023 | -0.0255 ± 0.026 | -0.0125 ± 0.032
lMphg:sIL-10 | -0.17 ± 0.013 | -0.0335 ± 0.015 | 0.0005 ± 0.0092 | 0.029 ± 0.033 | -0.0265 ± 0.06 | -0.357 ± 0.27 | -1.1 | -0.072 ± 0.047 | -0.043 ± 0.03 | -0.0495 ± 0.042 | 0.0065 ± 0.071 | -0.429 ± 0.093 | -0.194 ± 0.063 | -0.0825 ± 0.14 | -0.0155 ± 0.091 | -0.0015 ± 0.083 | -0.091 ± 0.0014 | -0.0775 ± 0.09
